According to ChEMBL document CHEMBL1135741, “Synthesis and biological evaluation of analogues of the peptaibol ampullosporin A” (J Med Chem, 2002):
Where a SMILES comes first, the peptide text is derived from it. [ ]: non-standard residue; d: D form. ξ: configuration not given here. Oic(3aξ,7aξ) = O=C(O)[C@@H]1CC2CCCCC2N1; 2Nal = N[C@@H](Cc1ccc2ccccc2c1)C(=O)O; Igl = N[C@H](C(=O)O)C1Cc2ccccc2C1; Tic = O=C(O)[C@@H]1Cc2ccccc2CN1; Leu(ol) = CC(C)C[C@H](N)CO; Aib = CC(C)(N)C(=O)O

How the values were obtained:
Mus musculus = species on record: Mus musculus; test: Evaluated for its ability to modify the core body temperature of mice; No activity; assay type: functional, organism-based
[1] = tested on: Remotididymella destructiva; test: Evaluated for pigment induction capacity based on the Phoma destructiva halo color; No activity; assay type: functional, organism-based

Row | SMILES | NA (Mus musculus) | NA [1]
1 | CC[C@@H](C)[C@H](NC(=O)[C@H](CC(C)C)NC(=O)[C@@H](NC(=O)[C@@H](NC(=O)[C@H](C)NC(=O)[C@H](Cc1c[nH]c2ccccc12)NC(C)=O)[C@@H](C)CC)[C@H](C)CC)C(=O)N[C@@H](CCC(N)=O)C(=O)N[C@H](C(=O)N[C@H](C(=O)N[C@H](C(=O)N[C@@H](CCC(N)=O)C(=O)N[C@@H](CC(C)C)C(=O)N[C@H](C(=O)N[C@@H](CCC(N)=O)C(=O)N[C@H](CO)CC(C)C)[C@@H](C)CC)[C@H](C)CC)[C@@H](C)CC)[C@H](C)CC | No activity | No activity
2 | CC(=O)N[C@@H](C)C(=O)NC(C)(C)C(=O)NC(C)(C)C(=O)N[C@@H](CC(C)C)C(=O)NC(C)(C)C(=O)N[C@@H](CCC(N)=O)C(=O)NC(C)(C)C(=O)NC(C)(C)C(=O)NC(C)(C)C(=O)N[C@@H](CCC(N)=O)C(=O)N[C@@H](CC(C)C)C(=O)NC(C)(C)C(=O)N[C@@H](CCC(N)=O)C(=O)N[C@H](CO)CC(C)C (Ac-A[Aib][Aib]L[Aib]Q[Aib][Aib][Aib]QL[Aib]Q[Leu(ol)]) | No activity | No activity
3 | CC(=O)N[C@@H](Cc1c[nH]c2ccccc12)C(=O)N[C@@H](C)C(=O)NC(C)(C)C(=O)NC(C)(C)C(=O)N[C@@H](CC(C)C)C(=O)N[C@@H](C)C(=O)N[C@@H](CCC(N)=O)C(=O)NC(C)(C)C(=O)NC(C)(C)C(=O)NC(C)(C)C(=O)N[C@@H](CCC(N)=O)C(=O)N[C@@H](CC(C)C)C(=O)NC(C)(C)C(=O)N[C@@H](CCC(N)=O)C(=O)N[C@H](CO)CC(C)C (Ac-WA[Aib][Aib]LAQ[Aib][Aib][Aib]QL[Aib]Q[Leu(ol)]) | No activity | –
4 | CC(=O)N[C@@H](Cc1c[nH]c2ccccc12)C(=O)N[C@@H](C)C(=O)NC(C)(C)C(=O)NC(C)(C)C(=O)N[C@@H](CC(C)C)C(=O)NC(C)(C)C(=O)N[C@@H](CCC(N)=O)C(=O)NC(C)(C)C(=O)NC(C)(C)C(=O)NC(C)(C)C(=O)N[C@@H](CCC(N)=O)C(=O)N[C@@H](CC(C)C)C(=O)NC(C)(C)C(=O)N[C@@H](CCC(N)=O)C(=O)O (Ac-WA[Aib][Aib]L[Aib]Q[Aib][Aib][Aib]QL[Aib]Q-OH) | No activity | No activity
5 | CC(=O)N[C@@H](Cc1ccc2ccccc2c1)C(=O)N[C@@H](C)C(=O)NC(C)(C)C(=O)NC(C)(C)C(=O)N[C@@H](CC(C)C)C(=O)NC(C)(C)C(=O)N[C@@H](CCC(N)=O)C(=O)NC(C)(C)C(=O)NC(C)(C)C(=O)NC(C)(C)C(=O)N[C@@H](CCC(N)=O)C(=O)N[C@@H](CC(C)C)C(=O)NC(C)(C)C(=O)N[C@@H](CCC(N)=O)C(=O)N[C@H](CO)CC(C)C (Ac-[2Nal]A[Aib][Aib]L[Aib]Q[Aib][Aib][Aib]QL[Aib]Q[Leu(ol)]) | No activity | –
6 | CC(=O)N[C@H](C(=O)N[C@@H](C)C(=O)NC(C)(C)C(=O)NC(C)(C)C(=O)N[C@@H](CC(C)C)C(=O)NC(C)(C)C(=O)N[C@@H](CCC(N)=O)C(=O)NC(C)(C)C(=O)NC(C)(C)C(=O)NC(C)(C)C(=O)N[C@@H](CCC(N)=O)C(=O)N[C@@H](CC(C)C)C(=O)NC(C)(C)C(=O)N[C@@H](CCC(N)=O)C(=O)N[C@H](CO)CC(C)C)C1Cc2ccccc2C1 (Ac-[Igl]A[Aib][Aib]L[Aib]Q[Aib][Aib][Aib]QL[Aib]Q[Leu(ol)]) | No activity | –
7 | CC(=O)N[C@@H](Cc1c[nH]c2ccccc12)C(=O)N[C@@H](C)C(=O)N[C@@H](C)C(=O)N[C@@H](C)C(=O)N[C@@H](CC(C)C)C(=O)N[C@@H](C)C(=O)N[C@@H](CCC(N)=O)C(=O)N[C@@H](C)C(=O)N[C@@H](C)C(=O)N[C@@H](C)C(=O)N[C@@H](CCC(N)=O)C(=O)N[C@@H](CC(C)C)C(=O)N[C@@H](C)C(=O)N[C@@H](CCC(N)=O)C(=O)N[C@H](CO)CC(C)C (Ac-WAAALAQAAAQLAQ[Leu(ol)]) | No activity | No activity
8 | CC(=O)N1C2CCCCC2C[C@H]1C(=O)N[C@@H](C)C(=O)NC(C)(C)C(=O)NC(C)(C)C(=O)N[C@@H](CC(C)C)C(=O)NC(C)(C)C(=O)N[C@@H](CCC(N)=O)C(=O)NC(C)(C)C(=O)NC(C)(C)C(=O)NC(C)(C)C(=O)N[C@@H](CCC(N)=O)C(=O)N[C@@H](CC(C)C)C(=O)NC(C)(C)C(=O)N[C@@H](CCC(N)=O)C(=O)N[C@H](CO)CC(C)C (some centres not stated) (Ac-[Oic(3aξ,7aξ)]A[Aib][Aib]L[Aib]Q[Aib][Aib][Aib]QL[Aib]Q[Leu(ol)]) | No activity | No activity
9 | CC(=O)N1Cc2ccccc2C[C@H]1C(=O)N[C@@H](C)C(=O)NC(C)(C)C(=O)NC(C)(C)C(=O)N[C@@H](CC(C)C)C(=O)NC(C)(C)C(=O)N[C@@H](CCC(N)=O)C(=O)NC(C)(C)C(=O)NC(C)(C)C(=O)NC(C)(C)C(=O)N[C@@H](CCC(N)=O)C(=O)N[C@@H](CC(C)C)C(=O)NC(C)(C)C(=O)N[C@@H](CCC(N)=O)C(=O)N[C@H](CO)CC(C)C (Ac-[Tic]A[Aib][Aib]L[Aib]Q[Aib][Aib][Aib]QL[Aib]Q[Leu(ol)]) | No activity | –
10 | CC(C)C[C@@H](CO)NC(=O)[C@H](CCC(N)=O)NC(=O)C(C)(C)NC(=O)[C@H](CC(C)C)NC(=O)[C@H](CCC(N)=O)NC(=O)C(C)(C)NC(=O)C(C)(C)NC(=O)C(C)(C)NC(=O)[C@H](CCC(N)=O)NC(=O)C(C)(C)NC(=O)[C@H](CC(C)C)NC(=O)C(C)(C)NC(=O)C(C)(C)NC(=O)[C@H](C)NC(=O)[C@@H](N)Cc1c[nH]c2ccccc12 (H-WA[Aib][Aib]L[Aib]Q[Aib][Aib][Aib]QL[Aib]Q[Leu(ol)]) | No activity | –
11 | CC(C)C[C@@H](CO)NC(=O)[C@H](CCC(N)=O)NC(=O)C(C)(C)NC(=O)[C@H](CC(C)C)NC(=O)[C@H](CCC(N)=O)NC(=O)C(C)(C)NC(=O)C(C)(C)NC(=O)C(C)(C)NC(=O)[C@H](CCC(N)=O)NC(=O)C(C)(C)NC(=O)[C@H](CC(C)C)NC(=O)C(C)(C)NC(=O)C(C)(C)NC(=O)[C@H](C)N (H-A[Aib][Aib]L[Aib]Q[Aib][Aib][Aib]QL[Aib]Q[Leu(ol)]) | No activity | No activity
